Assay results reported in ChEMBL document CHEMBL4507283, “Data for DCP probe BI-1935” (2021).

Assays:
[1] = biological target: Dual specificity mitogen-activated protein kinase kinase 3 (Homo sapiens) (UniProt P46734); details: Compound concentration 1000.0 nM
[2] = biological target: Mu-type opioid receptor (Homo sapiens) (UniProt P35372); details: Compound concentration 10.0 uM
[3] = biological target: T1, Thromboxane-A synthase (Homo sapiens) (UniProt P24557); assay: THRO SYN(HU) Eurofins-Panlabs selectivity data (BI)
T1 sequence (whole entry): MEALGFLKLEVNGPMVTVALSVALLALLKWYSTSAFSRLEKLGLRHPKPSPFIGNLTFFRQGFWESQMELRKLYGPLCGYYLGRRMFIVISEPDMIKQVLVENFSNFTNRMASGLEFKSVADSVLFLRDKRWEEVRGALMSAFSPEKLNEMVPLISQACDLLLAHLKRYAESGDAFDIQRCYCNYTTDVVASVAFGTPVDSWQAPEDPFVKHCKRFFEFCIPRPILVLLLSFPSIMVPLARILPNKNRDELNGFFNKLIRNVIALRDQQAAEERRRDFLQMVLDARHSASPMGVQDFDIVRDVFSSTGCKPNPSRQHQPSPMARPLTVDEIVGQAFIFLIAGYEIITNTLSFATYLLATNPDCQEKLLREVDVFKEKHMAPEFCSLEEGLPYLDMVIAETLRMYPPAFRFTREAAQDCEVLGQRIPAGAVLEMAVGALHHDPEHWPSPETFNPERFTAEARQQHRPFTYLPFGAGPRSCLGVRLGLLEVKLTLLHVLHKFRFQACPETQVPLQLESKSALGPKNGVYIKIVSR

[4] = biological target: Tyrosine-protein kinase Lyn (Homo sapiens) (UniProt P07948); details: Compound concentration 1000.0 nM
[5] = biological target: Tyrosine-protein kinase Fyn (Homo sapiens) (UniProt P06241); details: Compound concentration 1000.0 nM
[6] = biological target: Casein kinase I isoform alpha-like (Homo sapiens) (UniProt Q8N752); details: Compound concentration 1000.0 nM
[7] = biological target: Voltage-dependent L-type calcium channel subunit alpha-1C (diltiazem site) (Rattus norvegicus, UniProt P22002); assay: CA+/DILSI/RA Eurofins-Panlabs selectivity data (BI); details: compound concentration 10 uM, read-out: % Ctrl
[8] = biological target: Cyclin-dependent kinase 16 (Homo sapiens) (UniProt Q00536); details: Compound concentration 1000.0 nM
[9] = system: Receptor-type tyrosine-protein kinase FLT3 (Homo sapiens), P36888 [UNDEFINED MUTATION]; details: Compound concentration 1000.0 nM
Sequence of Receptor-type tyrosine-protein kinase FLT3 (Homo sapiens), P36888 [UNDEFINED MUTATION] (P36888 whole entry, looked up, stated change not applied): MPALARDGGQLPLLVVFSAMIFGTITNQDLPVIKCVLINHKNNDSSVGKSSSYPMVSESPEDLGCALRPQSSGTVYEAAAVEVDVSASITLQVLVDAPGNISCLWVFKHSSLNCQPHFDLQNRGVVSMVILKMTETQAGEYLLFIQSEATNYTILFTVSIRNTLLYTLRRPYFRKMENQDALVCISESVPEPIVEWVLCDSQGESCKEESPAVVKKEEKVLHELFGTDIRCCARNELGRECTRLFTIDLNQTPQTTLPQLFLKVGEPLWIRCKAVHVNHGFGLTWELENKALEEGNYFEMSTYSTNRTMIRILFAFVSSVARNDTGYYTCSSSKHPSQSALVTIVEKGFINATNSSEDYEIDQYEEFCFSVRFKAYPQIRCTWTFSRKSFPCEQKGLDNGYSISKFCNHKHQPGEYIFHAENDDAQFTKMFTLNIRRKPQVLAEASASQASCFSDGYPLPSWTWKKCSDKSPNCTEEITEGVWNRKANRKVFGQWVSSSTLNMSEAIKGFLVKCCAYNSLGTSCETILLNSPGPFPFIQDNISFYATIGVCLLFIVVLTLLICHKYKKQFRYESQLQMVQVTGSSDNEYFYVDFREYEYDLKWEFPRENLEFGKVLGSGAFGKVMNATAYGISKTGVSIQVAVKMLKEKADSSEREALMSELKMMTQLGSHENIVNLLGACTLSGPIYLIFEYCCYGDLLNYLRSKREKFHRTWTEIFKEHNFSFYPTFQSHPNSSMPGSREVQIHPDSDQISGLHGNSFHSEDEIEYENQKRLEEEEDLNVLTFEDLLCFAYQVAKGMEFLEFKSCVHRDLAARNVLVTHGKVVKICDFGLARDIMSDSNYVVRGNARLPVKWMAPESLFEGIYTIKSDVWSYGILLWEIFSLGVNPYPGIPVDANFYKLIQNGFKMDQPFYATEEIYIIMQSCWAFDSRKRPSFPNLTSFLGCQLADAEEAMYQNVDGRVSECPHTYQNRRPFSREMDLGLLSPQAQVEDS

[10] = system: Epidermal growth factor receptor (Homo sapiens), P00533 [L861Q]; details: Compound concentration 1000.0 nM
[11] = biological target: Mitogen-activated protein kinase 6 (Homo sapiens) (UniProt Q16659); details: Compound concentration 1000.0 nM
[12] = biological target: NUAK family SNF1-like kinase 2 (Homo sapiens) (UniProt Q9H093); details: Compound concentration 1000.0 nM
[13] = biological target: Non-receptor tyrosine-protein kinase TYK2 (Homo sapiens) (UniProt P29597); details: Compound concentration 1000.0 nM
[14] = biological target: Dual specificity protein kinase CLK4 (Homo sapiens) (UniProt Q9HAZ1); details: Compound concentration 1000.0 nM
[15] = system: Phosphatidylinositol 4,5-bisphosphate 3-kinase catalytic subunit alpha isoform (Homo sapiens), P42336 [M1043I]; details: Compound concentration 1000.0 nM
[16] = biological target: Serine/threonine-protein kinase RIO2 (Homo sapiens) (UniProt Q9BVS4); details: Compound concentration 1000.0 nM
[17] = biological target: Ribosomal protein S6 kinase alpha-1 (Homo sapiens) (UniProt Q15418); details: Compound concentration 1000.0 nM
Sequence of Ribosomal protein S6 kinase alpha-1 (Homo sapiens) (Q15418 whole entry): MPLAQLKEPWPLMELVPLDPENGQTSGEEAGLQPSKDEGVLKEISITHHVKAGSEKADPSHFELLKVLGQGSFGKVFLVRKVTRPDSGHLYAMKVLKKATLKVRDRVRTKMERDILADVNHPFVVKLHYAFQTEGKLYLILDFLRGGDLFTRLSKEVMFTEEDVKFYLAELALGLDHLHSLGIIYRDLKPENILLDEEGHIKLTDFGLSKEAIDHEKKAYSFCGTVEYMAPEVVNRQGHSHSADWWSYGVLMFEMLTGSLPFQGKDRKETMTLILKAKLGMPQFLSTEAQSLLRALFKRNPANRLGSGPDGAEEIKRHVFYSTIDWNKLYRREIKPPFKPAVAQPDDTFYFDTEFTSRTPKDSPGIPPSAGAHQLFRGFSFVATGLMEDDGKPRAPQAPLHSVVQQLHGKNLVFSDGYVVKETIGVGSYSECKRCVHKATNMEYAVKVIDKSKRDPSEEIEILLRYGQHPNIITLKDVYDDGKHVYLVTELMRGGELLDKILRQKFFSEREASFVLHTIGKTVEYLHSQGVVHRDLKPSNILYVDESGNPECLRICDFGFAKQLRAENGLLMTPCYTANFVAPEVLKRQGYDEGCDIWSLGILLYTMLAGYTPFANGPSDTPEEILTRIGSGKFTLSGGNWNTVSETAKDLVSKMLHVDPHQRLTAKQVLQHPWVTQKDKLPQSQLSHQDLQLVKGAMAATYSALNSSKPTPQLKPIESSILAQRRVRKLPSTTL

[18] = biological target: D(4) dopamine receptor (Homo sapiens) (UniProt P21917); assay: D4.2/H Eurofins-Panlabs selectivity data (BI); details: Compound concentration 10.0 uM
[19] = biological target: Serine/threonine-protein kinase MRCK gamma (Homo sapiens) (UniProt Q6DT37); details: Compound concentration 1000.0 nM
[20] = biological target: Serine/threonine-protein kinase WNK4 (Homo sapiens) (UniProt Q96J92); details: Compound concentration 1000.0 nM
[21] = system: Receptor-type tyrosine-protein kinase FLT3 (Homo sapiens), P36888 [UNDEFINED MUTATION]; details: Compound concentration 1000.0 nM; remark: listed apart in the source
[22] = system: Mast/stem cell growth factor receptor Kit (Homo sapiens), P10721 [V559D]; details: Compound concentration 1000.0 nM
[23] = biological target: Serine/threonine-protein kinase ICK (Homo sapiens) (UniProt Q9UPZ9); details: Compound concentration 1000.0 nM
[24] = system: Epidermal growth factor receptor (Homo sapiens), P00533 [G719C]; details: Compound concentration 1000.0 nM
[25] = system: Phosphatidylinositol 4,5-bisphosphate 3-kinase catalytic subunit alpha isoform (Homo sapiens), P42336 [C420R]; details: Compound concentration 1000.0 nM
[26] = biological target: AP2-associated protein kinase 1 (Homo sapiens) (UniProt Q2M2I8); details: Compound concentration 1000.0 nM
Sequence of AP2-associated protein kinase 1 (Homo sapiens) (Q2M2I8 whole entry, looked up): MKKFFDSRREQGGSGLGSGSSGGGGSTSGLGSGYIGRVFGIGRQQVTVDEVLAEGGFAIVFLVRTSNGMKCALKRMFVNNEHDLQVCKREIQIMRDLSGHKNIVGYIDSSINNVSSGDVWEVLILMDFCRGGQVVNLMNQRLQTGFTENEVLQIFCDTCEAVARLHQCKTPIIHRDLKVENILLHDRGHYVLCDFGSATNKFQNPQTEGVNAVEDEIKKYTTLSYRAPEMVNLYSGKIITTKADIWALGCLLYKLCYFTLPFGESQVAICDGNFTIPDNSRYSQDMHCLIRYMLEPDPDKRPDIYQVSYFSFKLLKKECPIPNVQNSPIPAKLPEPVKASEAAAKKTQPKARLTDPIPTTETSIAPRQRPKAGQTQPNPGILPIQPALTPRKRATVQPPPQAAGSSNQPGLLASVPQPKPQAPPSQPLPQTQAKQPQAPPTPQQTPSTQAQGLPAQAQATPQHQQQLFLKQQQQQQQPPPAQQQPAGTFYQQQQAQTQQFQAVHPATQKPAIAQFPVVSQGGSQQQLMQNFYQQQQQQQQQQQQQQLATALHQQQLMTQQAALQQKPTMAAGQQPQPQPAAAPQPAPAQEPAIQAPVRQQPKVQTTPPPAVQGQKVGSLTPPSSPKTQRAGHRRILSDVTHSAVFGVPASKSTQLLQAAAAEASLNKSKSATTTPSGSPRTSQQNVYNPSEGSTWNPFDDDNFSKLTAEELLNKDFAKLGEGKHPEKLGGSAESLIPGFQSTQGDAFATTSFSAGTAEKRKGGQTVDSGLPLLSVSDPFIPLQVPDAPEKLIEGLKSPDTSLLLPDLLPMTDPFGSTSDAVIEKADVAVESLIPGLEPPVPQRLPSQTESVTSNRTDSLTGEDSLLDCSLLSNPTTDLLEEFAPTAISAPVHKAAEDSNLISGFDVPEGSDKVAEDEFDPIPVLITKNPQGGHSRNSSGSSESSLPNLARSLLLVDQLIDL

[27] = biological target: Serine/threonine-protein kinase Sgk1 (Homo sapiens) (UniProt O00141); details: Compound concentration 1000.0 nM
Sequence of Serine/threonine-protein kinase Sgk1 (Homo sapiens) (O00141 whole entry): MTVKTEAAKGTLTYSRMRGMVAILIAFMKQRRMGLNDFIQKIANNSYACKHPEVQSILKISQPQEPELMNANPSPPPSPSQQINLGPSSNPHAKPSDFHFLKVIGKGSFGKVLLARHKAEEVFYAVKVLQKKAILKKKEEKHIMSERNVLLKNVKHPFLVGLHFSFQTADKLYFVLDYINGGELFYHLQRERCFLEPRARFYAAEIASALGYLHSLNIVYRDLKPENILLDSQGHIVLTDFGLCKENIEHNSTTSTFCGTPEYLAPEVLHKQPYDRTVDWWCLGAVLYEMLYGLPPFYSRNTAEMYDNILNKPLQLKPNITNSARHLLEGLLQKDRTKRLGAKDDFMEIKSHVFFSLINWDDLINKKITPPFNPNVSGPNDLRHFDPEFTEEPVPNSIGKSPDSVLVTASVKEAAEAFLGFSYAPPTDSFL

[28] = biological target: Serine/threonine-protein kinase WNK3 (Homo sapiens) (UniProt Q9BYP7); details: Compound concentration 1000.0 nM
Sequence of Serine/threonine-protein kinase WNK3 (Homo sapiens) (Q9BYP7 whole entry): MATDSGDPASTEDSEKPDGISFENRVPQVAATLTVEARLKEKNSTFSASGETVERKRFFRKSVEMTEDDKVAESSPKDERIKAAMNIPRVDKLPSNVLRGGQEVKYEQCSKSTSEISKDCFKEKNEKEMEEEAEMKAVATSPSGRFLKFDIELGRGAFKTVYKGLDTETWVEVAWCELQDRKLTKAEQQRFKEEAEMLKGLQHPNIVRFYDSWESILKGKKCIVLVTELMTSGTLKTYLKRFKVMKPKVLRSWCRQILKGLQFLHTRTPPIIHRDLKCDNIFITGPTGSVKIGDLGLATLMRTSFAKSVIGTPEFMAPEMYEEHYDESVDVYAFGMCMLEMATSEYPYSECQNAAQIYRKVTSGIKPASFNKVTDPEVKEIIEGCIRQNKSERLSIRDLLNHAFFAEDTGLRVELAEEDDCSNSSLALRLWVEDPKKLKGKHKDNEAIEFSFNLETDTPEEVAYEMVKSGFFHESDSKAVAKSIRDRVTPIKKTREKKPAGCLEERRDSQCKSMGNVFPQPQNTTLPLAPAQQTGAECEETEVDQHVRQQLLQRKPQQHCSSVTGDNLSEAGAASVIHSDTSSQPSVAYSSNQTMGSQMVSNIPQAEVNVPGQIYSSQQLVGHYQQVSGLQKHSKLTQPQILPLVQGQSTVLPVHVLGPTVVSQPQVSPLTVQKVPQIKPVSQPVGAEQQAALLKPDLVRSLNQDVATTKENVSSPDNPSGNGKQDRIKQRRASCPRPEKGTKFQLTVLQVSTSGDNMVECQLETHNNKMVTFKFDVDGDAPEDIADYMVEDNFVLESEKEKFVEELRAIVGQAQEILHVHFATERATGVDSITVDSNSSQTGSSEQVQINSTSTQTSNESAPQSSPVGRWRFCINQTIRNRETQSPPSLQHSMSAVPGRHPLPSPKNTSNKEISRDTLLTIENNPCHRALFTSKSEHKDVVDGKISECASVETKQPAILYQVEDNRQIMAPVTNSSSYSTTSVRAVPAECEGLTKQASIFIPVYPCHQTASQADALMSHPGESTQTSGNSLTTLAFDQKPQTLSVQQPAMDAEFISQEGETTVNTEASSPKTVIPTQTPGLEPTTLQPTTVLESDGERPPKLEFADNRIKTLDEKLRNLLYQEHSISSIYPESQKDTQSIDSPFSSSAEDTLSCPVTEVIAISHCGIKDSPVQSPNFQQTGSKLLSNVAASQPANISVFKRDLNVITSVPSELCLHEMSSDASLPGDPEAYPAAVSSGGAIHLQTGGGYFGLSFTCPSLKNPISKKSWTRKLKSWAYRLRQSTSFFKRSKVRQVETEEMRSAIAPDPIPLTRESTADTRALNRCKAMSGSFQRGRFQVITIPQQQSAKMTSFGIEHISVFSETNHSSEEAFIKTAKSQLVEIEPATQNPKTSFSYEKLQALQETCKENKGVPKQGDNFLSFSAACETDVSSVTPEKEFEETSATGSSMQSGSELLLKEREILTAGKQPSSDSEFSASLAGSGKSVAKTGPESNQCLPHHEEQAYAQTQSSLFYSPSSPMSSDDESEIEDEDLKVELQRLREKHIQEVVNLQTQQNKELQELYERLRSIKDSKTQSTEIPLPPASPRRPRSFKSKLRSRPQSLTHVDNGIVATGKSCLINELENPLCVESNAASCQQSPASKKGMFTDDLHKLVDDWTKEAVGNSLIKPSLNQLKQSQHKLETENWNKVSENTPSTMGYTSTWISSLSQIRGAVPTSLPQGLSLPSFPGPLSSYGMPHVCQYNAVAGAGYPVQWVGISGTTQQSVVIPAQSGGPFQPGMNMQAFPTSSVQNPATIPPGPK

[29] = biological target: Non-receptor tyrosine-protein kinase TNK1 (Homo sapiens) (UniProt Q13470); details: Compound concentration 1000.0 nM
[30] = system: Tyrosine-protein kinase ABL1 (Homo sapiens), P00519 [H396P]; details: Compound concentration 1000.0 nM
[31] = biological target: Ephrin type-A receptor 5 (Homo sapiens) (UniProt P54756); details: Compound concentration 1000.0 nM
[32] = biological target: Interleukin-1 receptor-associated kinase 3 (Homo sapiens) (UniProt Q9Y616); details: Compound concentration 1000.0 nM
[33] = biological target: BMP-2-inducible protein kinase (Homo sapiens) (UniProt Q9NSY1); details: Compound concentration 1000.0 nM
[34] = biological target: Atypical kinase COQ8B, mitochondrial (Homo sapiens) (UniProt Q96D53); details: Compound concentration 1000.0 nM
[35] = biological target: Endothelin-1 receptor (Homo sapiens) (UniProt P25101); assay: ETA/HU Eurofins-Panlabs selectivity data (BI); details: Compound concentration 10.0 uM

## CCOCCn1cc(C(=O)Nc2ccc(-n3nc(-c4cccnc4)cc3C(F)(F)F)cn2)ccc1=O [BI 1935]
[1]
  residual activity: 83%
[2]
  inhibition: 2.68%
[3]; Compound concentration 0.03 uM
  residual activity: 86%
[3]; Compound concentration 0.1 uM
  residual activity: 57%
[3]; Compound concentration 0.3 uM
  residual activity: 27%
[3]; Compound concentration 1.0 uM
  residual activity: 13%
[3]; Compound concentration 3.0 uM
  residual activity: 2%
[3]; Compound concentration 10.0 uM
  residual activity: 4%
[4]
  residual activity: 81%
[5]
  residual activity: 53%
[6]
  residual activity: 100%
[7]
  activity at 10 µM: 95% (not active)
[8]
  residual activity: 98%
[9]
  residual activity: 56%
[10]
  residual activity: 100%
[11]
  residual activity: 100%
[12]
  residual activity: 73%
[13]
  residual activity: 77%
[14]
  residual activity: 100%
[15]
  residual activity: 100%
[16]
  residual activity: 60%
[17]
  residual activity: 99%
[18]
  residual activity: 103%
[19]
  residual activity: 91%
[20]
  residual activity: 91%
[21]
  residual activity: 86%
[22]
  residual activity: 87%
[23]
  residual activity: 99%
[24]
  residual activity: 97%
[25]
  residual activity: 93%
[26]
  residual activity: 100%
[27]
  residual activity: 83%
[28]
  residual activity: 76%
[29]
  residual activity: 83%
[30]
  residual activity: 100%
[31]
  residual activity: 100%
[32]
  residual activity: 100%
[33]
  residual activity: 95%
[34]
  residual activity: 100%
[35]
  residual activity: 97%
